Measurements: PMC9394284, “Discovery of Novel Dual Adenosine A2A and A1 Receptor Antagonists with 1H-Pyrazolo[3,4-d]pyrimidin-6-amine Core Scaffold as Anti-Parkinson’s Disease Agents” (Pharmaceuticals, 2022)

Columns and labels:
hA2A receptors = target: T1, hA2A receptors (Homo sapiens, UniProt P29274); test: radioligand binding to human A2A receptors, HEK-293 membranes; conditions: average of duplicate experiments
T1 construct: purchased PerkinElmer RBHA2AM
Protocol: The binding affinities of synthesized compounds to human A2A receptors (hA2AR) were measured by assessing competitive binding of ligands to radioligand […] using membrane preparations of human recombinant HEK-293 cells expressing human A2A receptors.
The radioligand-binding assays for adenosine receptors were performed at Eurofins Discovery Services (Panlabs, Taiwan). Briefly, stock solutions of the compounds were prepared in DMSO and further diluted with the incubation buffer to the desired concentration. Final DMSO concentrations in the assay were 1.0%. […] Nonspecific binding was estimated in the presence of 100 μM R(-)-PIA. Membranes were filtered and washed 3 times and the filters were counted to determine specifically bound [^3H]DPCPX. Chemical compounds were screened at 10 μM. […] Nonspecific binding was estimated in the presence of 50.0 μM NECA. […] Nonspecific binding was estimated in the presence of 100 μM NECA. Membranes were filtered and washed 3 times and the filters were counted to determine [^3H]MRS1754 specifically bound. […] Nonspecific binding was estimated in the presence of 1.0 μM IB-MECA.
IC50 values were determined by a nonlinear, least-squares regression analysis using MathIQ^TM (ID Business Solutions Ltd., Guildford, UK). […] The Hill coefficient (nH), which defines the slope of the competitive binding curve, was calculated using MathIQ^TM.

hA1 receptor = target: T2, hA1 receptor (Homo sapiens, UniProt P30542); test: radioligand binding to human A1 receptors, CHO-K1 membranes, [3H]DPCPX; conditions: average of duplicate experiments
T2 sequence (P30542 1-326): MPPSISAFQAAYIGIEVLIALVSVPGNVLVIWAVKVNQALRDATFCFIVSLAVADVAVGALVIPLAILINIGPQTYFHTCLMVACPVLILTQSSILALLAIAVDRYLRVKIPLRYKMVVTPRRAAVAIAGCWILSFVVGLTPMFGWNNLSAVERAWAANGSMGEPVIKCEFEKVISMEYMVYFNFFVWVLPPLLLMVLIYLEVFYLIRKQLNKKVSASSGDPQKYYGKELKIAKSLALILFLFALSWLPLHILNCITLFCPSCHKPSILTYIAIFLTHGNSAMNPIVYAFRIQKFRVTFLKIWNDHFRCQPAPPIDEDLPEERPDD
Protocol: The radioligand-binding assays for adenosine receptors were performed at Eurofins Discovery Services (Panlabs, Taiwan). Briefly, stock solutions of the compounds were prepared in DMSO and further diluted with the incubation buffer to the desired concentration. Final DMSO concentrations in the assay were 1.0%. For adenosine A1 screening, a 10 μg aliquots of membrane preparations from human recombinant CHO-K1 cells stably expressing A1 receptors (CHO-K1-hA1AR clone3, EPDST, R200510) were incubated with 1 nM [^3H]DPCPX in incubation buffer (20 mM HEPES, pH 7.4, 10 mM MgCl2, 100 mM NaCl 1.40 nM) for 90 min at 25 °C. Nonspecific binding was estimated in the presence of 100 μM R(-)-PIA. Membranes were filtered and washed 3 times and the filters were counted to determine specifically bound [^3H]DPCPX. Chemical compounds were screened at 10 μM. For A2A screening, membrane preparations from human recombinant HEK-293 cells stably expressing A2A receptors (PerkinElmer, RBHA2AM) were incubated with 0.05 μM [^3H]CGS-21680 in incubation buffer (50 mM Tris-HCl, pH 7.4, 10 mM MgCl2, 1 mM EDTA, 2 U/mL Adenosine Deaminase) for 90 min at 25 °C. Nonspecific binding was estimated in the presence of 50.0 μM NECA. Membranes were filtered and washed 3 times and the filters were counted to determine [^3H]CGS-21680 specifically bound. For A2B screening, membrane preparations from human recombinant HEK-293 cells stably expressing A2B receptors (PerkinElmer, ES-013-M) were incubated with 1.6 nM [^3H]MRS1754 in incubation buffer (50 mM Tris-HCl, pH 6.5, 5 mM MgCl2, 1 mM EDTA, 0.01 % Bacitracin) for 90 min at 25 °C. Nonspecific binding was estimated in the presence of 100 μM NECA. Membranes were filtered and washed 3 times and the filters were counted to determine [^3H]MRS1754 specifically bound. For A3 screening, membrane preparations from human recombinant CHO-K1 cells stably expressing A3 receptors (PerkinElmer, ES-012-M) were incubated with 0.5 nM [^125I]AB-MECA in incubation buffer (25 mM HEPES, pH 7.4, 5 mM MgCl2, 1 mM CaCl2, 0.1 % BSA) for 60 min at 25 °C. Nonspecific binding was estimated in the presence of 1.0 μM IB-MECA.
IC50 values were determined by a nonlinear, least-squares regression analysis using MathIQ^TM (ID Business Solutions Ltd., Guildford, UK). Where inhibition constants (Ki) were presented, the Ki values were calculated using Cheng and Prusoff equation [18] using the observed IC50 of the compound, the concentration of radioligand employed in the assay, and the historical values for the KD of the ligand (obtained experimentally at Eurofins Panlabs, Inc.). The Hill coefficient (nH), which defines the slope of the competitive binding curve, was calculated using MathIQ^TM.

solubility (qualitative) = assay type: physicochemical; conditions: CF3 next to aniline, difficulties in forming salt

T1 sequence (P29274 whole entry): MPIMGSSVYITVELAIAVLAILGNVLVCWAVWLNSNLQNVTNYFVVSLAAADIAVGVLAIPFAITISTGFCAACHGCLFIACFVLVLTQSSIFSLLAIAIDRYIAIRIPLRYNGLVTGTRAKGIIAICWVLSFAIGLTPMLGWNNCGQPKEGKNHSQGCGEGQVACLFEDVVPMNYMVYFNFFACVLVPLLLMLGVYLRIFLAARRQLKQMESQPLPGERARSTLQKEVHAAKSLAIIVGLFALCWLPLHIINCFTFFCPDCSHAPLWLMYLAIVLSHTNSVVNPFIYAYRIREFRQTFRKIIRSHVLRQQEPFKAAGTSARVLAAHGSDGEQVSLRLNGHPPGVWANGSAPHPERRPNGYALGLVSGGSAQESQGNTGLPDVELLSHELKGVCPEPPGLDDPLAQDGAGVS

Row | Ki (hA2A receptors) [nM] | Ki (hA1 receptor) [nM] | solubility (in words) (solubility (qualitative)) | SMILES
1 | 16.4 |  |  | N#Cc1cccc(-c2nc(N)nc3c2cnn3Cc2ccc(N)cc2)c1 [4a, 3-(6-Amino-1-(4-aminobenzyl)-1H-pyrazolo[3,4-d]pyrimidin-4-yl)benzonitrile]
2 | 19.4 |  |  | N#Cc1cccc(-c2nc(N)nc3c2cnn3Cc2ccc(N)cc2)c1F [4b, 3-(6-Amino-1-(4-aminobenzyl)-1H-pyrazolo[3,4-d]pyrimidin-4-yl)-2-fluorobenzonitrile]
3 | 310 | 2470 |  | N#Cc1ccnc(-c2nc(N)nc3c2cnn3Cc2ccc(N)cc2)c1 [11a, 2-(6-Amino-1-(4-aminobenzyl)-1H-pyrazolo[3,4-d]pyrimidin-4-yl)isonicotinonitrile]
4 | 31 | 650 |  | N#Cc1cccc(-c2nc(N)nc3c2cnn3Cc2ccc(N)cc2)n1 [11b, 6-(6-Amino-1-(4-aminobenzyl)-1H-pyrazolo[3,4-d]pyrimidin-4-yl)picolinonitrile]
5 | 4790 | 32000 |  | N#Cc1cncc(-c2nc(N)nc3c2cnn3Cc2ccc(N)cc2)c1 [11c, 5-(6-Amino-1-(4-aminobenzyl)-1H-pyrazolo[3,4-d]pyrimidin-4-yl)nicotinonitrile]
6 | 4720 | 8530 |  | N#Cc1cc(-c2nc(N)nc3c2cnn3Cc2ccc(N)cc2)ccn1 [11d, 4-(6-Amino-1-(4-aminobenzyl)-1H-pyrazolo[3,4-d]pyrimidin-4-yl)picolinonitrile]
7 | 120 | 710 |  | N#Cc1ccnc(-c2nc(N)nc3c2cnn3Cc2ccc(N)cc2F)c1 [11e, 2-(6-Amino-1-(4-amino-2-fluorobenzyl)-1H-pyrazolo[3,4-d]pyrimidin-4-yl)isonicotinonitrile]
8 | 10.6 | 160 |  | N#Cc1cccc(-c2nc(N)nc3c2cnn3Cc2ccc(N)cc2F)n1 [11f, 6-[6-Amino-1-[(4-amino-2-fluoro-phenyl)methyl]pyrazolo[3,4-d]pyrimidin-4-yl]pyridine-2-carbonitrile]
9 | 2640 | 32800 |  | N#Cc1cncc(-c2nc(N)nc3c2cnn3Cc2ccc(N)cc2F)c1 [11g, 5-(6-Amino-1-(4-amino-2-fluorobenzyl)-1H-pyrazolo[3,4-d]pyrimidin-4-yl)nicotinonitrile]
10 | 3190 | 28000 |  | N#Cc1cc(-c2nc(N)nc3c2cnn3Cc2ccc(N)cc2F)ccn1 [11h, 4-(6-Amino-1-(4-amino-2-fluorobenzyl)-1H-pyrazolo[3,4-d]pyrimidin-4-yl)picolinonitrile]
11 | 12.1 | 160 |  | N#Cc1cccc(-c2nc(N)nc3c2cnn3Cc2ccc(N)cc2F)c1 [11i, 3-(6-Amino-1-(4-amino-2-fluorobenzyl)-1H-pyrazolo[3,4-d]pyrimidin-4-yl)benzonitrile]
12 | 16.4 | 63 |  | N#Cc1cccc(-c2nc(N)nc3c2cnn3Cc2ccc(N)cc2F)c1F [11j, 3-(6-Amino-1-(4-amino-2-fluorobenzyl)-1H-pyrazolo[3,4-d]pyrimidin-4-yl)-2-fluorobenzonitrile]
13 | 65 | 510 |  | Cc1cc(Cn2ncc3c(-c4cc(C#N)ccn4)nc(N)nc32)ccc1N [11k, 2-(6-Amino-1-(4-amino-3-methylbenzyl)-1H-pyrazolo[3,4-d]pyrimidin-4-yl)isonicotinonitrile]
14 | 6.39 | 180 |  | Cc1cc(Cn2ncc3c(-c4cccc(C#N)n4)nc(N)nc32)ccc1N [11l, 6-(6-Amino-1-(4-amino-3-methylbenzyl)-1H-pyrazolo[3,4-d]pyrimidin-4-yl)picolinonitrile]
15 | 2480 | 21200 |  | Cc1cc(Cn2ncc3c(-c4cncc(C#N)c4)nc(N)nc32)ccc1N [11m, 5-(6-Amino-1-(4-amino-3-methylbenzyl)-1H-pyrazolo[3,4-d]pyrimidin-4-yl)nicotinonitrile]
16 | 1150 | 21300 |  | Cc1cc(Cn2ncc3c(-c4ccnc(C#N)c4)nc(N)nc32)ccc1N [11n, 4-(6-Amino-1-(4-amino-3-methylbenzyl)-1H-pyrazolo[3,4-d]pyrimidin-4-yl)picolinonitrile]
17 | 47 | 380 |  | N#Cc1ccnc(-c2nc(N)nc3c2cnn3Cc2c(F)cc(N)cc2F)c1 [11p, 2-[6-Amino-1-[(4-amino-2,6-difluoro-phenyl)methyl]pyrazolo[3,4-d]pyrimidin-4-yl]pyridine-4-carbonitrile]
18 | 6.84 | 150 |  | N#Cc1cccc(-c2nc(N)nc3c2cnn3Cc2c(F)cc(N)cc2F)n1 [11q, 6-[6-Amino-1-[(4-amino-2,6-difluoro-phenyl)methyl]pyrazolo[3,4-d]pyrimidin-4-yl]pyridine-2-carbonitrile]
19 | 1220 | 10000 |  | N#Cc1cncc(-c2nc(N)nc3c2cnn3Cc2c(F)cc(N)cc2F)c1 [11r, 5-[6-Amino-1-[(4-amino-2,6-difluoro-phenyl)methyl]pyrazolo[3,4-d]pyrimidin-4-yl]pyridine-3-carbonitrile]
20 | 4920 |  |  | N#Cc1cc(-c2nc(N)nc3c2cnn3Cc2c(F)cc(N)cc2F)ccn1 [11s, 4-[6-Amino-1-[(4-amino-2,6-difluoro-phenyl)methyl]pyrazolo[3,4-d]pyrimidin-4-yl]pyridine-2-carbonitrile]
21 | 7.42 | 50 |  | N#Cc1cccc(-c2nc(N)nc3c2cnn3Cc2c(F)cc(N)cc2F)c1 [11t, 3-[6-Amino-1-[(4-amino-2,6-difluoro-phenyl)methyl]pyrazolo[3,4-d]pyrimidin-4-yl]benzonitrile]
22 | 6.45 | 30 |  | N#Cc1cccc(-c2nc(N)nc3c2cnn3Cc2c(F)cc(N)cc2F)c1F [11u, 3-(6-Amino-1-(4-amino-2,6-difluorobenzyl)-1H-pyrazolo[3,4-d]pyrimidin-4-yl)-2-fluorobenzonitrile]
23 | 10.2 | 250 | greatly reduced solubility | N#Cc1ccnc(-c2nc(N)nc3c2cnn3Cc2ccc(N)c(C(F)(F)F)c2)c1 [11v, 2-[6-Amino-1-[[4-amino-3-(trifluoromethyl)phenyl]methyl]pyrazolo[3,4-d]pyrimidin-4-yl]pyridine-4-carbonitrile]
24 | 1.94 | 49 | greatly reduced solubility | N#Cc1cccc(-c2nc(N)nc3c2cnn3Cc2ccc(N)c(C(F)(F)F)c2)c1 [11w, 3-(6-Amino-1-(4-amino-3-(trifluoromethyl)benzyl)-1H-pyrazolo[3,4-d]pyrimidin-4-yl)benzonitrile]
25 |  | 610 |  | CCn1c(=O)c2c(nc(/C=C/c3ccc(OC)c(OC)c3)n2C)n(CC)c1=O [Istradefylline, reference compound]
26 | 11.1 | 110 |  | Cc1cc(Cn2ncc3c(-c4cccc(C#N)c4)nc(N)nc32)ccc1N [compound 8, 3-(6-Amino-1-(4-amino-3-methylbenzyl)-1H-pyrazolo[3,4-d]pyrimidin-4-yl)benzonitrile]
